What all share (format): cell-based
In one test the test system is Micrococcus luteus B-109. As to the kind of experiment: Bactericidal activity, agar diffusion, M. luteus. The note with it: Micrococcus luteus, B109, 2 mM/L. The source says:
(§1) Plant pathogenic bacterial strains Micrococcus luteus B-109, Pectobacterium atrosepticum 1043, Pectobacterium carotovorum subsp. carotovorum MI, Pseudomonas fluorescens EL-2.1, and Xanthomonas campestris B-610 and fungal strain Fusarium oxysporum IBPPM 543 were obtained from the specialized scientific culture collection of IBPPM RAS (WFCC no. 975, WDCM no. 1021) (CM IBPPM). Pathogenic fungus Phytophthora cactorum VKM F-985 provided by the All-Russian Collection of Microorganisms (VKM) and deposited at A.E. Favorsky Irkutsk Institute of Chemistry, SB RAS, was also used as test organism. Bacteria M. luteus, P. carotovorum subsp. carotovorum, P. atrosepticum, and Ps. fluorescens were grown in meat-peptone medium (BP), and X. campestris was grown in the medium with glucose, yeast extract, and calcium carbonate (GYCa). Solid media contained Bacto agar (18 g/L); pH was adjusted to 7.2-7.4. All bacterial cultures were grown at 28°C. The mycelial cultures of F. oxysporum and P. cactorum were grown on a glucose-peptone-yeast (GPY) nutrient medium at 27 °C. For inoculum preparation, both fungal strains were initially grown on the agar GPY in Petri dishes and then transferred into the seed medium by punching out 5 mm of the agar plate culture with a self-designed cutter.
(§2) Antibacterial and antifungal activities of the compounds were explored using the agar diffusion method and the technique of a phytopathogen radial growth inhibition. Method of diffusion in agar (measuring the diameter of growth inhibition zones) was used for determining the bactericidal activity. The 6-mm wells were made in ager medium (GYCa for Xanthomonas campestris or BP for other bacteria). Bacterial suspensions were distributed over the agar surface, and the tested compound's solution (150 μl) was added to each well. The width of growth inhibition zones around the wells was determined after incubation for 36-40 h.
(§3) The solutions of tested compounds were prepared with a concentration of 2 mmol/l (stock solution). For comparison, test compounds were also commonly applied disinfecting agents and antibiotics.
Background: Agar diffusion results depend on both activity and mobility in agar.

The subject of test [1] is Pectobacterium carotovorum subsp. carotovorum MI. The test can be described thus: Bactericidal activity, agar diffusion, P. carotovorum. Particulars: Pectobacterium carotovorum, 2 mM/L.
Excerpt: as §1, §2, §3

Test [2] relates to Pectobacterium atrosepticum 1043. As to the kind of experiment: Bactericidal activity, agar diffusion, P. atrosepticum. The note with it: Pectobacterium atrosepticum, 1043, 2 mM/L.
Excerpt: as §1, §2, §3

Test [3] has as its system platelets (collagen-induced aggregation). As to the kind of experiment: Platelet aggregation (Born method), collagen-induced. The note with it: Homo sapiens, collagen 5 mg/mL, final concentration 2×10^–3 mol/L, median (25-75 percentiles), read-out: Platelets aggregation, % of control, Collagen. The method, then: (§4) The in vitro experiments were performed using the blood of healthy male donors aged 18-24 years (total 54 donors). The study was approved by the Ethics Committee of Federal State Budgetary Educational Institution of Higher Education at the Bashkir State Medical University of the Ministry of Health of Russian Federation (No.2 dated 17.10.2012). Informed consent was obtained from all participants before blood sampling. The blood was collected from the cubital vein using the system of vacuum blood collection BD Vacutainer® (Becton, Dickinson and Company, USA). A 3.8 % sodium citrate solution in a 9:1 ratio was used as a venous blood stabiliser. The study of the effect on platelet aggregation was performed using the Born method using the aggregometer «AT-02» (SPC Medtech, Russia). The assessment of antiplatelet activity of the studied compounds and reference preparations was started with the final concentration of 2×10^–3 mol/L. Adenosine diphosphate (ADP; 20 μg/mL) and collagen (5 mg/mL) manufactured by Tehnologia-Standart Company, Russia, were used as inducers of aggregation. The study on the anticoagulant activity was performed by standard recognised clotting tests using the optical two-channel automatic analyser of blood coagulation Solar CGL 2110 (CJSC SOLAR, Belarus). The following parameters were studied: activated partial thromboplastin time (APTT), prothrombin time (PT) and fibrinogen concentrations according to the Clauss method. The determination of anticoagulant activity of the studied compounds and reference preparation was performed in a concentration of 5×10^–4 g/mL using the reagents manufactured by Tehnologia-Standart Company (Barnaul, Russia). The results of the study were processed using the statistical package Statistica 10.0 (StatSoft Inc, USA). The Shapiro–Wilk’s test was used to check the normality of actual data distribution. The form of distribution of the data obtained differed from the normal one; therefore, non-parametric methods were used for further analysis. The data were presented as medians and 25 and 75 percentiles. Analysis of variance was conducted using Kruskal–Wallis test. A p value of 0.05 was considered statistically significant.

In test [4] the test system is Xanthomonas campestris B-610. As to the kind of experiment: Bactericidal activity, agar diffusion, X. campestris. Particulars: Xanthomonas campestris, B610, 2 mM/L.
Excerpt: as §1, §2, §3

Test [5] deals with platelets (ADP-induced aggregation). As to the kind of experiment: Platelet aggregation (Born method), ADP-induced. Particulars: Homo sapiens, ADP 20 μg/mL, final concentration 2×10^–3 mol/L, median (25-75 percentiles), read-out: Platelets aggregation, % of control, ADP. The method, then: as §4
The subject of test [6] is Pseudomonas fluorescens EL-2.1. As to the kind of experiment: Bactericidal activity, agar diffusion, Ps. fluorescens. The note with it: Pseudomonas fluorescens, EL2.1, 2 mM/L.
Excerpt: as §1, §2, §3

Setting [7] is: 150 μl per well, 36-40 h, read-out: width of the inhibition zone.
The mark [8] stands for this setting: read-out: Inhibition zone width (mm), not less.

Each structure is given as a SMILES string. Read-outs that look alike come from different tables or passages of the source.

The source of these data is article PMC8957246, “Synthesis and diverse biological activity profile of triethylammonium isatin-3-hydrazones” (ADMET & DMPK, 2022).

Consider `CC[N+](CC)(CC)CC(=O)N/N=C1\C(=O)N(Cc2cc(C(C)(C)C)c(O)c(C(C)(C)C)c2)c2c(Br)cc(Cl)cc21` [Compound 3g, 2-(2-(1-(3,5-Di-tert-butyl-4-hydroxybenzyl)-5-chloro-7-bromo-2-oxoindolin-3-ylidene)hydrazinyl)-N,N,N-triethyl-2-oxoethanammonium bromide], for which the zone of inhibition at 2000 µM was 7 mm with Micrococcus luteus B-109 (setting [7]); 9 mm in test [1] (setting [7]); not below 9 mm in test [1] (setting [8]); 9 mm in test [2] (setting [7]); not below 9 mm in test [2] (setting [8]); 8 mm in test [4] (setting [7]). Further, the zone of inhibition at 2000 µM is not below 8 mm in test [4] (setting [8]), 8.5 mm in test [6] (setting [7]) and not below 8 mm in test [6] (setting [8]). For the same molecule, the inhibition at 2000 µM in test [3] came out at 8.9%; in test [5], 10.2%.
Regarding `CC[N+](CC)(CC)CC(=O)N/N=C1\C(=O)N(Cc2cc(C(C)(C)C)c(O)c(C(C)(C)C)c2)c2ccccc21` [Compound 3a, 2-(2-(1-(3,5-Di-tert-butyl-4-hydroxybenzyl)-2-oxoindolin-3-ylidene)hydrazinyl)-N,N,N-triethyl-2-oxoethanammonium bromide], the zone of inhibition at 2000 µM in the test with Micrococcus luteus B-109 (setting [7]) was 9 mm; in the test on Micrococcus luteus B-109 (setting [8]), not below 9 mm; in test [1] (setting [7]) it was 10 mm; in test [1] (setting [8]) it was not below 10 mm; in test [2] (setting [7]), 8 mm; in test [2] (setting [8]) it was not below 8 mm. In addition, the zone of inhibition at 2000 µM in test [4] (setting [7]) was 10 mm; in test [4] (setting [8]), not below 10 mm; in test [6] (setting [7]) it was 9 mm; in test [6] (setting [8]) it was not below 9 mm. The inhibition at 2000 µM in test [3] was 9.4%; in test [5], 10.5%.
Turning to `CC[N+](CC)(CC)CC(=O)N/N=C1\C(=O)N(Cc2cc(C(C)(C)C)c(O)c(C(C)(C)C)c2)c2c1ccc(C)c2C` [Compound 3d, 2-(2-(1-(3,5-Di-tert-butyl-4-hydroxybenzyl)-6,7-dimethyl-2-oxoindolin-3-ylidene)hydrazinyl)-N,N,N-triethyl-2-oxoethanammonium bromide], the zone of inhibition at 2000 µM in the test on Micrococcus luteus B-109 (setting [7]) was 8 mm; in the test on Micrococcus luteus B-109 (setting [8]), not below 8 mm; in test [1] (setting [7]), 8 mm; in test [1] (setting [8]), not below 8 mm; in test [2] (setting [7]), 8 mm; in test [2] (setting [8]), not below 8 mm. Also, the zone of inhibition at 2000 µM in test [4] (setting [7]) is 8 mm; in test [4] (setting [8]), not below 8 mm; in test [6] (setting [7]), 9 mm; in test [6] (setting [8]) it was not below 9 mm. Besides, the inhibition at 2000 µM in test [3] is 8.5%; in test [5] it was 9%.
Regarding `CC[N+](CC)(CC)CC(=O)N/N=C1\C(=O)N(Cc2cc(C(C)(C)C)c(O)c(C(C)(C)C)c2)c2ccc([N+](=O)[O-])cc21` [Compound 3f, 2-(2-(1-(3,5-Di-tert-butyl-4-hydroxybenzyl)-5-nitro-2-oxoindolin-3-ylidene)hydrazinyl)-N,N,N-triethyl-2-oxoethanammonium bromide], the zone of inhibition at 2000 µM in the test on Micrococcus luteus B-109 (setting [7]) is 10 mm; with Micrococcus luteus B-109 (setting [8]) it was not below 10 mm; in test [1] (setting [7]) it was 5 mm; in test [2] (setting [7]) it was 10 mm; in test [2] (setting [8]), not below 10 mm; in test [4] (setting [7]) it was 7.5 mm. The zone of inhibition at 2000 µM is 10 mm in test [6] (setting [7]) and not below 10 mm in test [6] (setting [8]). The figures for the inhibition at 2000 µM in test [3] and in test [5] were 4.3% and 4.6%, respectively.
Consider `CC[N+](CC)(CC)CC(=O)N/N=C1\C(=O)N(Cc2cc(C(C)(C)C)c(O)c(C(C)(C)C)c2)c2cccc(Br)c21` [Compound 3e, 2-(2-(1-(3,5-Di-tert-butyl-4-hydroxybenzyl)-4-bromo-2-oxoindolin-3-ylidene)hydrazinyl)-N,N,N-triethyl-2-oxoethanammonium bromide], for which the zone of inhibition at 2000 µM in the test with Micrococcus luteus B-109 (setting [7]) was 13 mm; with Micrococcus luteus B-109 (setting [8]), not below 13 mm; in test [1] (setting [7]), 10 mm; in test [1] (setting [8]), not below 10 mm; in test [2] (setting [7]) it was 15 mm; in test [2] (setting [8]), not below 15 mm. For the same molecule, the zone of inhibition at 2000 µM in test [4] (setting [7]) was 11 mm; in test [4] (setting [8]) it was not below 11 mm; in test [6] (setting [7]) it was 9 mm; in test [6] (setting [8]), not below 9 mm. The inhibition at 2000 µM is 2.4% in test [3] and 0.5% in test [5].
On to `CCc1cccc2c1N(Cc1cc(C(C)(C)C)c(O)c(C(C)(C)C)c1)C(=O)/C2=N\NC(=O)C[N+](CC)(CC)CC` [Compound 3c, 2-(2-(1-(3,5-Di-tert-butyl-4-hydroxybenzyl)-7-ethyl-2-oxoindolin-3-ylidene)hydrazinyl)-N,N,N-triethyl-2-oxoethanammonium bromide], for which the zone of inhibition at 2000 µM in the test on Micrococcus luteus B-109 (setting [7]) is 10.5 mm; in the test on Micrococcus luteus B-109 (setting [8]), not below 10 mm; in test [1] (setting [7]), 9 mm; in test [1] (setting [8]) it was not below 9 mm; in test [2] (setting [7]) it was 9 mm; in test [2] (setting [8]), not below 9 mm. The zone of inhibition at 2000 µM in test [4] (setting [7]) is 11 mm; in test [4] (setting [8]), not below 11 mm; in test [6] (setting [7]), 8 mm; in test [6] (setting [8]) it was not below 8 mm. The inhibition at 2000 µM in test [3] is 12.5%; in test [5] it was 13.7%.
